{"source": "patent EP1951748B1", "about": "“HEPATITIS C VIRUS VARIANTS” (Vertex Pharmaceuticals, Inc., priority 2005, dated 2007)", "key": {"[1]": {"tested_on": "HCV replicon cells containing R155I", "assay_type": "cell-based", "details": "value (spread in brackets), 2880 min"}, "[2]": {"tested_on": "HCV replicon cells containing R155G", "assay_type": "cell-based", "details": "value (spread in brackets), 2880 min"}, "[3]": {"tested_on": "HCV NS3 protease T54A", "assay_type": "biochemical"}, "[4]": {"tested_on": "HCV NS3 protease A156S", "assay_type": "biochemical"}, "[5]": {"tested_on": "HCV NS3 protease A156T", "assay_type": "biochemical"}, "[6]": {"tested_on": "HCV replicon cells containing R155K", "assay_type": "cell-based", "details": "for Replicon Assay (resistance of viral variant): R155K, value (spread in brackets)", "description": "(§1) The stable wild-type (mADE) and variant HCV sub-genomic replicon cell lines were generated using the T7 RNA runoff transcripts from the corresponding high efficiency Con1 replicon plasmids.\n(§2) The stable wild-type and variant HCV sub-genomic replicon cell lines were generated using the T7 RNA runoff transcripts from the corresponding high efficiency Con1 replicon plasmids."}, "[7]": {"tested_on": "HCV replicon cells containing R155M", "assay_type": "cell-based", "details": "for Replicon Assay (resistance of viral variant): R155M, value (spread in brackets)", "description": "as §1, §2"}, "[8]": {"tested_on": "HCV replicon cells containing R155T", "assay_type": "cell-based", "details": "for Replicon Assay (resistance of viral variant): R155T, value (spread in brackets)", "description": "as §1, §2"}, "[9]": {"tested_on": "genotype 1 HCV", "test": "Phase 1b clinical trial (Study VX04-950-101), plasma HCV RNA", "details": "for Δ in VL (Log change in HCV RNA from nadir to Day 14 (end of dosing)): 14 days, one value per subject"}, "[10]": {"tested_on": "Con1-based HCV replicon cells with a different set of adaptive mutations (24-2)", "details": "determined previously in 24-2 replicon cells (refs 25,41); read-out: 48-h IC50; cited from earlier work"}, "[11]": {"tested_on": "HCV NS3 protease A156I"}, "[12]": {"details": "Hepatitis C virus, 48 h, read-out: Replicon IC50"}}, "note": "Several values for one entry are separate records, joined by “and”; a condition that tells them apart may be missing. Equal entries are not always repeated."}
{"smiles": "COc1ccc2c(O[C@@H]3C[C@H]4C(=O)N[C@]5(C(=O)O)C[C@H]5/C=C\\CCCCC[C@H](NC(=O)OC5CCCC5)C(=O)N4C3)cc(-c3csc(NC(C)C)n3)nc2c1", "note": "[BILN 2061]", "values": [{"measurement": "Replicon Assay (resistance of viral variant)", "setting": "[1]", "value": "36.5 (9.5)"}, {"measurement": "Replicon Assay (resistance of viral variant)", "setting": "[2]", "value": "821 (208)"}, {"measurement": "IC50", "setting": "[3]; T54A", "value": 0.01, "unit": "µM"}, {"measurement": "Fold change", "setting": "[3]; enzyme IC50 of T54A compared to the genotype 1a HCV-H reference strain, 15 min", "value": 2.3}, {"measurement": "IC50", "setting": "[4]; A156S", "value": 0.0074, "unit": "µM"}, {"measurement": "Fold change", "setting": "[4]; enzyme IC50 of A156S compared to the genotype 1a HCV-H reference strain, 15 min", "value": 1.6}, {"measurement": "Fold change", "setting": "[5]; enzyme IC50 of A156T compared to the genotype 1a HCV-H reference strain, 15 min", "value": ">183"}, {"measurement": "Replicon Assay (resistance of viral variant)", "setting": "[6]; 2880 min", "value": "355 (213)"}, {"measurement": "Replicon Assay (resistance of viral variant)", "setting": "[7]; 2880 min", "value": "42.2(2.1)"}, {"measurement": "Replicon Assay (resistance of viral variant)", "setting": "[8]; 2880 min", "value": "645 (173)"}]}
{"smiles": "CC(C)(C)OC(=O)N[C@H]1CCCCC/C=C\\[C@@H]2C[C@@]2(C(=O)NS(=O)(=O)C2CC2)NC(=O)[C@@H]2C[C@@H](OC(=O)N3Cc4cccc(F)c4C3)CN2C1=O", "note": "[ITMN-191]", "values": [{"measurement": "Replicon Assay (resistance of viral variant)", "setting": "[1]", "value": "1.3(0.2)"}, {"measurement": "Replicon Assay (resistance of viral variant)", "setting": "[2]", "value": "18.7(3.0)"}, {"measurement": "Replicon Assay (resistance of viral variant)", "setting": "[6]; 2880 min", "value": 62.8}, {"measurement": "Replicon Assay (resistance of viral variant)", "setting": "[8]; 2880 min", "value": 9.2}]}
{"smiles": "NC(=O)c1ncn([C@@H]2O[C@H](CO)[C@@H](O)[C@H]2O)n1", "note": "[Ribavirin, 1-beta-D-ribofuranosyl-1H-- 1,2,4-triazole-3-carboxamide]", "values": [{"measurement": "IC50", "setting": "[6]; [12]", "value": "37 ± 17", "unit": "µM"}, {"measurement": "Fold change", "setting": "[6]; replicon IC50 of R155K divided by that of the wild-type HCV replicon, 2880 min", "value": "0.6 ± 0.3"}, {"measurement": "IC50", "setting": "[7]; [12]", "value": "39 ± 5", "unit": "µM"}, {"measurement": "Fold change", "setting": "[7]; replicon IC50 of R155M divided by that of the wild-type HCV replicon, 2880 min", "value": "0.7 ± 0.1"}, {"measurement": "IC50", "setting": "[8]; [12]", "value": "32 ± 18", "unit": "µM"}, {"measurement": "Fold change", "setting": "[8]; replicon IC50 of R155T divided by that of the wild-type HCV replicon, 2880 min", "value": "0.6 ± 0.3"}]}
{"smiles": "CC(C)(C)NC(=O)N[C@H](C(=O)N1C[C@H]2[C@@H]([C@H]1C(=O)NC(CC1CCC1)C(=O)C(N)=O)C2(C)C)C(C)(C)C", "note": "(stereo partly drawn) [SCH 503034]", "values": [{"measurement": "Replicon Assay (resistance of viral variant)", "setting": "[1]", "value": "6.6(2.1)"}, {"measurement": "Replicon Assay (resistance of viral variant)", "setting": "[2]", "value": "2.8(0.6)"}, {"measurement": "Replicon Assay (resistance of viral variant)", "setting": "[6]; 2880 min", "value": "6.2(4.9)"}, {"measurement": "Replicon Assay (resistance of viral variant)", "setting": "[7]; 2880 min", "value": "2.5(0.3)"}, {"measurement": "Replicon Assay (resistance of viral variant)", "setting": "[8]; 2880 min", "value": "10.2(2.4)"}]}
{"smiles": "CCC[C@H](NC(=O)[C@@H]1[C@H]2CCC[C@H]2CN1C(=O)[C@@H](NC(=O)[C@@H](NC(=O)c1cnccn1)C1CCCCC1)C(C)(C)C)C(=O)C(=O)NC1CC1", "note": "[VX-950]", "values": [{"measurement": "HCV RNA levels at Day 14", "setting": "[9]; 7 patients with continued response, down to undetectable (<10 IU/mL)", "value": "≤ 64", "unit": "IU/mL"}, {"measurement": "drop in HCV RNA (initial response)", "setting": "[9]; 13 patients who later rebounded during dosing", "value": "greater than 2 log10"}, {"measurement": "Δ in VL (Log change in HCV RNA from nadir to Day 14 (end of dosing))", "setting": "[9]; dose 450 (mg q8h)", "value": "1.82 and 0.65 and 0.41 and 1.84 and 1.06"}, {"measurement": "Δ in VL (Log change in HCV RNA from nadir to Day 14 (end of dosing))", "setting": "[9]; dose 750 (mg q8h)", "value": "0.73 and 0.22"}, {"measurement": "Δ in VL (Log change in HCV RNA from nadir to Day 14 (end of dosing))", "setting": "[9]; dose 1250 (mg q12h)", "value": "3.20 and 1.16 and 1.93 and 0.05 and 0.33 and 0.62 and 0.26"}, {"measurement": "IC50", "setting": "[10]", "value": 0.354, "unit": "µM"}, {"measurement": "IC50", "setting": "[5]; A156T, one row per patient-specific genetic background", "value": "21.5 µM and 15 µM"}, {"measurement": "IC50", "setting": "[11]", "value": "> 50", "unit": "µM"}]}
